{"source": "patent US20210330756A1", "about": "“Acetylation of Miro1” (University of South Carolina, priority 2020, published 2021)", "key": {"Ac-histone H4": {"tested_on": "Ac-histone H4", "test": "Immunoblotting for Ac-histone H4 in adult DRG neurons (HDAC specificity)", "format": "cell-based, rat", "experimental": "We tested for this specificity in the adult DRG neurons from above by immunoblotting. […] (A) Number of mitochondria in growth cones after exposing DRG cultures to 10 μM TubA versus vehicle (control) for 1 h is shown as average fold-change in number of mitochondria per growth cone±SEM (n=13 axons across three culture preparations; *, P≤0.05 by one-way ANOVA with Bonferroni post hoc analysis). (B) Representative EMs of Remak bundles (arrowheads) in naive Sciatic nerve and nerves after 2 h vehicle (DMSO) or TubA injection are shown. Arrows indicate mitochondria in the unmyelinated axons. Note that a Schwann cell nucleus (asterisk) is seen in the Remak bundle for DMSO image but not the other two micrographs (scale bar=3 μm). (C) Quantification of number of mitochondria per unmyelinated axon from EM images as in B is shown as average±SEM (n≥5; *****, P≤0.0001 by one-way ANOVA with Bonferroni post hoc analysis). (D-F) Quantification for indicated parameters for mitochondrial transport in sciatic nerve in vivo using tetramethylrhodamine, ethyl ester, perchlorate to visualize mitochondria is shown.\nFor immunoblotting, protein lysates or immunoprecipitates were denatured by boiling in Laemmli sample buffer, fractionated by SDS-PAGE, and transferred to nitrocellulose membranes. Blots were blocked for 1 h at room temperature with 5% nonfat dry milk in TBS with 0.1% Tween 20 (TBST). Primary antibodies diluted in 5% BSA in TBST were added to the membranes and incubated overnight at 4° C. with rocking. Primary antibodies consisted of rabbit anti-Myc (1:2,000; Cell Signaling; 71D10), rabbit anti-RHOT1 antibody (1:1,000; Aviva Systems Biology; ARP44817 P050), rabbit anti-HDAC6 antibody (1:2,000; Cell Signaling; 7558), rabbit anti-ERK1 (1:5,000; Abcam; ab32537), and affinity-purified custom rabbit anti-Miro1-AcK105 (1:2,500; Twiss laboratory, see above) antibodies. For the anti-Miro1-AcK105 antibody, preimmune and test-bleed sera were used at 1:1,000 dilutions to initially evaluate for specificity. After washing in TBST, blots were incubated with HRP-conjugated anti-rabbit IgG antibodies (1:5,000; Jackson Immunoresearch) diluted in blocking buffer for 1 h at room temperature. Signals were detected using ECL Prime (GE Healthcare) after extensive washing."}, "[1]": {"tested_on": "axonal mitochondrial transport in DRG neurons", "test": "FRAP of Mito-GFP in distal axons of DRG neurons", "format": "cell-based, rat", "details": "for effect on MAG-Fc-dependent decrease in Mito-GFP recovery / mitochondrial transport: pretreatment: TubA 10 μM, Y27632 10 μM or BAPTA-AM 3 μM", "experimental": "MAG or Aggrecan exposures were performed as bath application or on coated substrates. For bath application, dissociated DRGs were cultured for 48 h and treated with 25 μg/ml of MAG-Fc (R&D Systems; 538-MG), 25 μg/ml Fc control (R&D Systems; 110-HG), or 10 μg/ml of Aggrecan (Sigma-Aldrich; A1960) for 4 h. Cultures were pretreated with either Ca^2+ chelator BAPTA-AM (3 μM; Sigma-Aldrich; A1076), ROCK inhibitor Y27632 (10 μM; Sigma-Aldrich; SCM075), HDAC6 inhibitor TubA (10 μM; R&D Systems; 6270), Thapsigargin (1 μM; Sigma-Aldrich; T9033), Rho Activator II (1 μg/ml; Cytoskeleton; CNO3), or equivalent volume DMSO 30 min before MAG-Fc, Aggrecan, or controls. For substrate-bound experiments, adult DRGs were cultured on glass bottom dishes (Greiner) that were coated with 25 μg/ml Aggrecan in addition to the laminin/poly-D-lysine substrate.\nMito-KR- and Mito-GFP-expressing DRG neurons were used for FRAP analyses at 48-72 h after transfection. To evaluate mitochondrial motility in Mito-KR-expressing neurons, Mito-KR signals were photobleached using continual exposure to an argon laser set at 594 nm for 30 s (100% laser power) The bleached ROI was then monitored for recovery using an argon laser set at 580 nm every 10 s over 16 min (13% laser power). For FRAP analyses with Mito-GFP, GFP signals were photobleached in a 50 μm ROI using an argon laser set at 488 nm every 10 s for 16 min (70% laser power). The same excitation was used for post-bleach imaging to assess recovery every 10 s for 16 min. For axon shaft FRAP experiments in Mito-GFP-expressing neurons, ROIs of ˜50 μm in length (without branches) were imaged >100 μm proximal to the growth cone. Prebleach, bleach, and post-bleach sequences were the same as for Mito-GFP above. In all cases, neurons were imaged over 40 s or more to acquire baseline Mito-KR or Mito-GFP signals before photobleaching using an argon laser (580 nm at 13% power for Mito-KR and 488 nm at 31% power for Mito-GFP).\nVesicle trafficking was quantified using differential ImageJ Difference Tracker Plug-in (Andrews et al., 2010). 50-80-μm long unbranched axon segments at approximately the mid-region between growth cone and cell body were analyzed. Kymographs were generated using ImageJ Kymograph Plug-in. For analyses of axon retraction in the CALI experiment, the distance from the distal tip of the growth cone in the pre-CALI image sequence was used as the baseline (t=1 min). The distance between the growth tip at end of the post-CALI sequence and the pre-CALI baseline was measured using LAS-X software. Movement of ≥0.5 μm toward the axon shaft was counted as retracted. Fluorescence emission of the Mito-KR post-CALI was analyzed using ImageJ. For normalizing intensities across FRAP image sets, fluorescence intensity at each time point was scaled using the LAS-X FRAP module so that the residual fluorescence signal at t=0 min (post-bleach) was set at 0 and the prebleach intensity was set at 100% for each bleached ROI. For axon shaft FRAP analyses, each 50-μm bleached ROI was divided into […], and the fluorescence intensity recovery was measured as described above. EMs at 1,900× and 4,800× magnification across the crosssectional surface of each sciatic nerve were used for in vivo analyses of mitochondrial content. A minimum of 75 unmyelinated axons was analyzed for each nerve. All unmyelinated axons from each analyzed image were included for quantitative studies. The total number of mitochondria was determined in each unmyelinated axon in the field and was divided by the total number of unmyelinated axons for all subjects. […] was determined by changes in JC-1 fluorescence. JC-1 exists either as a green fluorescent monomer at depolarized membrane potentials or as an orange-red fluorescent aggregate at hyperpolarized membrane potentials. […]"}}, "data": [{"smiles": "O=C(CCCN1C(=O)c2cccc3cccc(c23)C1=O)NO", "note": "[Nullscript]", "values": [{"measurement": "Ac-histone H4 levels", "setting": "Ac-histone H4; 6.3 μM", "result": "no change in Ac-histone H4 levels"}]}, {"smiles": "O=C(CCCCCN1C(=O)c2cccc3cccc(c23)C1=O)NO", "note": "[Scriptaid]", "values": [{"measurement": "Ac-histone H4 levels", "setting": "Ac-histone H4; Scriptaid, concentration not given", "result": "clear increase in Ac-histone H4 levels"}]}, {"smiles": "CC(=O)OCOC(=O)CN(CC(=O)OCOC(C)=O)c1ccccc1OCCOc1ccccc1N(CC(=O)OCOC(C)=O)CC(=O)OCOC(C)=O", "note": "[BAPTA-AM]", "values": [{"measurement": "basal Mito-GFP FRAP recovery after the first 5 min", "setting": "[1]; 3 μM", "result": "no different than recovery in untreated cultures"}, {"measurement": "basal Mito-GFP FRAP recovery in distal axons, first 5 min after bleach", "setting": "[1]; 3 μM", "result": "increased recovery"}, {"measurement": "effect on decrease in axonal mitochondrial transport seen upon direct activation of RhoA", "setting": "[1]; 3 μM BAPTA-AM + 1 μg/ml Rho activator, 960 s after bleach", "result": "completely abrogated the decrease in axonal mitochondrial transport"}, {"measurement": "additive or synergistic effect when combined with 10 μM TubA", "setting": "[1]; MAG-Fc, Mito-GFP FRAP", "result": "No significant additive effects"}, {"measurement": "effect on MAG-Fc-dependent decrease in Mito-GFP recovery / mitochondrial transport", "setting": "[1]; 960 s after bleach", "result": "prevented the MAG-Fc attenuation of axonal mitochondrial transport"}]}, {"smiles": "C[C@@H](N)[C@H]1CC[C@H](C(=O)Nc2ccncc2)CC1", "note": "[Y27632]", "values": [{"measurement": "additive or synergistic effect when combined with 3 μM BAPTA-AM", "setting": "[1]; MAG-Fc, Mito-GFP FRAP", "result": "no additive or synergistic effect"}, {"measurement": "additive or synergistic effect when combined with 10 μM TubA", "setting": "[1]; MAG-Fc, Mito-GFP FRAP", "result": "no additive or synergistic effect"}, {"measurement": "additive effect when combined with 10 μM TubA", "setting": "[1]; aggrecan 10 μg/ml, Mito-GFP FRAP", "result": "no significant additive effects"}, {"measurement": "effect on aggrecan-dependent decrease in Mito-GFP recovery", "setting": "[1]; aggrecan 10 μg/ml, TubA 10 μM or Y27632 10 μM", "result": "prevented the aggrecan dependent decrease in Mito-GFP recovery"}, {"measurement": "effect on MAG-Fc-dependent decrease in Mito-GFP recovery / mitochondrial transport", "setting": "[1]; 960 s after bleach", "result": "similarly blocked the decline in mitochondrial transport"}, {"measurement": "effect on MAG-Fc-dependent decrease in Mito-GFP recovery / mitochondrial transport", "setting": "[1]; 960 s after bleach, listed as ROCK inhibitor", "result": "similarly prevented the MAG-dependent decrease in mitochondrial transport"}]}]}
